One series has as its system SP1+MCRE-MHI. The experiment in a line: cells. To be noted: HEK293FT; for fold induction at 20 µM: Homo sapiens. How it is done: Briefly, Lipofectamine 3000 (Thermofisher Scientific, L3000015) was used to transfect the SP1+MCRE indicator into the HEK293FT cell line. 24 h after transfection, 30000 cells were plated into each well of a 96 well black well plate. 48 h after transfection the cells were exposed to FDA Approved Drug Screening Library (L1300-Z298012) via the High Throughput Screening Services (ChemCore) at Johns Hopkins University. Each drug was exposed in 20 μM concentration. Total well GFP was read with the ClarioStarPlus Plate Reader (settings: gain 1500, 470-15 excitation and emission 515-20 at focal height 2.6) 16, 28, and 40 h after exposure of the library. Increase in fluorescence was calculated with dividing GFP reads from positive control at each time point with GFP reads of each well exposed to drug at the same timepoint for wells in the same lane. Compounds were validated in same concentration (20 μM). For validation cells were exposed to the drug for 24 hours, and evaluated by FACS as described in the section Transfection of indicators into cell lines.
To explore this in an unbiased manner, a systematic library drug screen (1953 FDA-approved inhibitors) was performed using HEK293FT cells transfected with the SP1+MCRE-MHI. […] Cells transfected with said MHI were exposed to the drug library (20 μM concentration) and fluorescence was measured after 16-, 28- and 40-hours of drug exposure. Drugs that could increase the indicator's fluorescence at least >3.75 times at one of the time points were further investigated.

Another series concerns HEK293 cells. In words: Cell cycle phase evaluation of HEK293 cells. It counts as cell-based, human. To be noted: for cell cycle arrest: HEK293 cells exposed to compound. The protocol: To exclude the possibility of cell cycle arrest or increased apoptosis, cell cycle phase of HEK293 cells exposed to Pozitinib and Entacapone was evaluated. […] Similarly, there were no signs of activation of the MHIs after exposure to an apoptotic agent.

In a further series the test system is SP1, RBM3 and CIRBP. In words: Western blot of SP1, RBM3 and CIRBP after compound exposure. The following applies: 24 h exposure at either 32° C. or 37° C. Format: cell-based, human. How it is done: (§1) Cells were washed with PBS and then lysed for 30 min on ice in RIPA buffer (50 mM Tris HCl ph8, 150 mM NaCl, 1% NP-40, 1% Sodium deoxycholate, 0.1% SDS, 2 mM EDTA, phosphatase inhibitor (Cell signaling, Cat. #5870S), and Halt™ Protease Inhibitor Cocktail (Thermo Fisher, Cat. #78437). The lysates were centrifuged at 16,000×g for 20 minutes at 4° C. and the supernatants were collected. The supernatants were diluted with 4× loading buffer (Li-cor) and heated at 95° C. for 5 mins. The protein concentration was measured using Pierce™ BCA Assay Kit (Thermo Fisher). 20-30 μg protein samples were loaded into gels and separated by SDS-PAGE. They were transferred to polyvinylidene fluoride (PVDF) membranes and blocked in 5% bovine serum albumin in Tris-buffered saline with Tween 20 for 1 hour. Primary antibodies (rabbit anti-CIRBP, 1:2000, Cat. #10209-2-AP, Proteintech; rabbit anti-RBM3, 1:1000, CAT. #14363-1-AP, Proteintech; rabbit anti-SP1 1:1000, CAT. #21962-1-AP, Proteintech; mouse anti-Lamin 1, 1:5000, CAT. #66095-1-Ig, Proteintech; rabbit anti-SMYD5, 1:1000, in-house; rabbit anti-Phospho-SP1, 1:1000, CAT. #PA5-104771, Proteintech) were applied to respective membranes after washing, and incubated at 4° C. overnight. […] After washing, the protein bands were visualized on the Odyssey® CLx Infrared Imaging System and quantified by Image J software.
(Immunoblotting shows a protein as a band on a membrane.)

In a further series the test system is SP1-MHI. The experiment in a line: FACS validation in HEK293 cells with Cas9 and SP1-MHI. Format: cell-based, human. To be noted: 20 μM. How it is done:
HEK293 cell lines were transfected when 70-90% confluency was reached. Either Lipofectamine™ 2000 or 3000 (Thermofisher Scientific, #11668027, #L3000015) was used according to the manufacture's protocol. The fluorescence of the indicators was measured via FACS up to 48 hours after transfection. FACS data were analysed with the FlowJo Software, where gates were created on living cells, single cells, GFP positive cells and the fluorescence for that population was measured.
Each drug was exposed in 20 μM concentration. […] Compounds were validated in same concentration (20 μM).
HEK293 cells with Cas9 and SP1-MHI were individually exposed to each compound (20 μM) for 16 hours at either 32° C. or 37° C. followed by FACS. […] (Entacapone, Poziotinib), indicating activation of response with drug without hypothermic stimulus.

A further series has as its system SMYD5. In words: SMYD5 levels at 32° C. with proteasome inhibition. The following applies: 6 hour exposure. It counts as cell-based, human. How it is done:
as §1, with “software. […]” for “software.”

A further series deals with CIRBP. The experiment in a line: RT-qPCR of endogenous CIRBP relative to GAPDH. Format: cell-based, human. The following applies: 16 h exposure at 37° C. The protocol: (§2) Total RNA from cells incubated at 32° C. or 37° C. was isolated, using Direct-zol™ RNA Microprep (Zymo Research, R2062), according to the manufacturer's instructions. The concentration of RNA was measured by NanoDrop™ One Microvolume UV-Vis Spectrophotometer (Thermo Scientificv™) followed by cDNA synthesis with High-Capacity cDNA Reverse Transcription Kit (Applied Biosystems™, 4368814) on MiniAmp™ Thermal Cycler (Applied Biosystems™). qPCR was performed using Luna® Universal qPCR Master Mix on CFX384™ Real-Time PCR Detection System (Bio-Rad). Each biological replicate of the RT-qPCR assay in this study was carried out in technical triplicates. Any technical replicate that deviated from other replicates by 0.4 cycle threshold (Ct) was removed from calculations of average Ct values. The primers used in this study are as follows: […]
(§3) To evaluate effects on the endogenous loci (CIRBP, RBM3 and SP1) real time quantitative polymerase chain reaction (RT-qPCR) was carried out after 16 h of either 32° C. or 37° C.—with or without the exposure to the compound during that time.
In general terms: Real-time PCR tracks product formation cycle by cycle.

Another series deals with RBM3. In words: RT-qPCR of endogenous RBM3 relative to GAPDH. Format: cell-based, human. The following applies: 16 h exposure at 37° C. The protocol: as §2, §3
The subject of a further series is SP1. In words: RT-qPCR of endogenous SP1 relative to GAPDH. Format: cell-based, human. The following applies: 16 h exposure at 37° C. How it is done: as §2, §3
[1] abbreviates: 40 h, read-out: increase in fluorescence of the SP1+MCRE-MHI.

Like-named read-outs stand apart in the source and are kept apart here. Where a SMILES comes first, the peptide text is derived from it. The star is where a group is joined. Cbz = O=C(OCc1ccccc1)*

Turning to `CN(C)C/C=C/C(=O)Nc1cc2c(Nc3ccc(F)c(Cl)c3)ncnc2cc1O[C@H]1CCOC1` [Afatinib], in the series on SP1+MCRE-MHI (setting [1]), the fold induction at 20 µM was over 3.75. With `C[C@@H](NCCCc1cccc(C(F)(F)F)c1)c1cccc2ccccc12` [Cincalcet], the “increase in fluorescence of the SP1+MCRE-MHI” value with SP1+MCRE-MHI (20 μM, at one of the time points (16, 28, 40 h of drug exposure)) was over 3.75 times. `Cc1nc(Nc2ncc(C(=O)Nc3c(C)cccc3Cl)s2)cc(N2CCN(CCO)CC2)n1` [Dasatinib]: the fold induction at 20 µM in the series with SP1+MCRE-MHI (setting [1]) is over 3.75. `CCN(CC)C(=O)/C(C#N)=C/c1cc(O)c(O)c([N+](=O)[O-])c1` [Entacapone]: the “percentage of total cells in the S phase of cell cycle” value with HEK293 cells (16 hours exposure at both 32° C. and 37° C.) is on record as “slight increase”. In addition, the cell cycle arrest result in the series on HEK293 cells is on record as “Any signs of cell cycle arrest”. In addition, the fold induction at 20 µM with SP1+MCRE-MHI (setting [1]) is over 3.75. In addition, the “Western blot of SP1, RBM3 and CIRBP with versus without compound” value in the series with SP1, RBM3 and CIRBP is “significant difference (P<0.05”. Further, the “mean fluorescence of SP1-MHI by FACS” value in the series with SP1-MHI (16 hours at 32° C.) is “significantly (P<0.01) potentiate fluorescence levels”; in the series with SP1-MHI (16 hours at 37° C.), “significantly (P<0.001, P<0.0001) increased fluorescence”.

As to `CC[C@H]1OC(=O)[C@H](C)[C@@H](O[C@H]2C[C@@](C)(OC)[C@@H](O)[C@H](C)O2)[C@H](C)[C@@H](O[C@@H]2O[C@H](C)C[C@H](N(C)C)[C@H]2O)[C@](C)(O)C[C@@H](C)C(=O)[C@H](C)[C@@H](O)[C@]1(C)O` [Erythromycin], in the series on SP1+MCRE-MHI (setting [1]), the fold induction at 20 µM is over 3.75. As for `CS(=O)(=O)CCNCc1ccc(-c2ccc3ncnc(Nc4ccc(OCc5cccc(F)c5)c(Cl)c4)c3c2)o1` [Lapatinib], in the series on SP1+MCRE-MHI (setting [1]), the fold induction at 20 µM is over 3.75. `CC(C)C[C@@H](C=O)NC(=O)[C@H](CC(C)C)NC(=O)[C@H](CC(C)C)NC(=O)OCc1ccccc1` [MG132] (Cbz-Leu-Leu-Leu-aldehyde): the SMYD5 levels entry in the series with SMYD5 was “increases levels of SMYD5 at 32 °C to levels seen at 37 °C”. On to `C=CCN1CC[C@]23c4c5ccc(O)c4O[C@H]2C(=O)CC[C@@]3(O)[C@H]1C5` [Naloxone], for which, in the series with SP1+MCRE-MHI (setting [1]), the fold induction at 20 µM was over 3.75. Still for that read-out and setting: the value for `Cc1[nH]c(/C=C2\C(=O)Nc3ccccc32)c(C)c1CCC(=O)O` [Orantinib] was over 3.75.

With `C=CC(=O)N1CCC(Oc2cc3c(Nc4ccc(Cl)c(Cl)c4F)ncnc3cc2OC)CC1` [Poziotinib], the “CIRBP mRNA expression” value in the series with CIRBP is listed as “trend towards increase”. Moreover, the “RBM3 mRNA expression” value in the series on RBM3 is on record as “significantly (P<0.05) increased”. Further, the cell cycle arrest result in the series with HEK293 cells is “Any signs of cell cycle arrest”. Besides, in the series with SP1+MCRE-MHI (setting [1]), the fold induction at 20 µM is over 3.75. Moreover, the “mean fluorescence of SP1-MHI by FACS” value in the series with SP1-MHI (16 hours at 37° C.) is given as “significantly (P<0.001, P<0.0001) increased fluorescence”. Also, the “SP1 mRNA expression” value in the series with SP1 is listed as “trend towards increase”. As for `C=CC(=O)Nc1cccc(Nc2nc(Nc3ccc(N4CCN(C(C)=O)CC4)cc3OC)ncc2C(F)(F)F)c1` [Rociletinib], in the series on SP1+MCRE-MHI (setting [1]), the fold induction at 20 µM was over 3.75. Still for that read-out and setting: for `CC/C(=C(\c1ccccc1)c1ccc(OCCN(C)C)cc1)c1ccccc1` [Tamoxifen] the value was over 3.75. Consider `Cc1ccc(C(=O)c2cc(O)c(O)c([N+](=O)[O-])c2)cc1` [Tolcapone], for which the fold induction at 20 µM in the series with SP1+MCRE-MHI (16 h, read-out: relative increase of fluorescence of the SP1+MCRE-MHI compared to control) stood at 1.8; with SP1+MCRE-MHI (28 h, read-out: relative increase of fluorescence of the SP1+MCRE-MHI compared to control), 1.7; with SP1+MCRE-MHI (40 h, read-out: relative increase of fluorescence of the SP1+MCRE-MHI compared to control), 1.9.

(Values after US20260284050A1, “ACTIVATORS OF THE COLD STRESS RESPONSE AND USES THEREOF” (priority 2023, published 2026).)
